By GI50 is commonly meant the concentration that inhibits growth by half.

The values that follow come from paper PMC2375326, “In vitro evaluation of amino acid prodrugs of novel antitumour 2-(4-amino-3-methylphenyl)benzothiazoles” (British Journal of Cancer, 2002).

SMILES strings stand for the structures.

Data set [1] deals with CAKI-1. The data set can be described thus: NCI in vitro cytotoxicity assay (SRB), CAKI-1. The note with it: Homo sapiens, 48 h exposure, sulforhodamine B assay, mean graph, read-out: Log10 GI50 (CAKI-1) (converted). It is filed as cell-based. On the procedure:
(§1) Cell culture and drug application procedures have been described previously ([Boyd and Paull, 1995]). Briefly, cell lines were inoculated into a series of 96-well microtiter plates, with varied seeding densities depending on growth characteristics of each cell line. Following a 24 h drug free incubation, test agents were added at five 10-fold dilutions with a maximum concentration of 100 μM. Cellular protein levels were determined after 48 h drug exposure by sulphorhodamine B colorimetry.
Background: In SRB staining, fixed cells bind dye roughly in proportion to their protein.

The subject of data set [2] is MCF-7 cells. The data set can be described thus: Prodrug uptake, conversion and metabolism (HPLC of media), MCF-7. Conditions: prodrug 10 μM, days 1–7. The format is in vitro ADME, human. On the procedure: MCF-7 cells were seeded into 25 ml flasks at appropriate densities (5×10^5–5×10^6). After 24 h, medium was changed and drug introduced at a final concentration of 10 μM. Media samples, collected from flasks at time zero and 24 h intervals, were mixed with 1.5-fold volumes of high performance liquid chromatography (HPLC) grade acetonitrile to precipitate protein and centrifuged at 14 000 g for 5 min. Supernatants (600 μl) were mixed with 400 μl 10% acetonitrile in 1% acetic acid and analysed by HPLC. The system consisted of Beckman System Gold equipment (solvent module 128, autosampler 507e and multiple wavelength UV detector 168). Separation of parent compounds and biotransformation products was effected at room temperature on a Phenomenex Aqua C18 reversed-phase column (150×4.6 mm). The mobile phase was formed by increasing, then decreasing the acetonitrile concentration in 1% acetic acid over 20 min by mixing two solutions: acetonitrile-water-acetic acid (10 : 90 : 1, v v^−1) and acetonitrile-water-acetic acid (80 : 20 : 1 v v^−1) and delivered at a flow rate of 1 ml min^−1. Compounds were detected at 324 nm.

Data set [3] has as its system NCI-H522. As to the kind of experiment: NCI in vitro cytotoxicity assay (SRB), NCI-H522. The note with it: Homo sapiens, 48 h exposure, sulforhodamine B assay, mean graph, read-out: Log10 GI50 (NCI-H522) (converted). It is filed as cell-based. How it is done: as §1
The subject of data set [4] is SF-295. The data set can be described thus: NCI in vitro cytotoxicity assay (SRB), SF-295. It is filed as cell-based. The note with it: Homo sapiens, 48 h exposure, sulforhodamine B assay, mean graph, read-out: Log10 GI50 (SF-295) (converted). How it is done: as §1
Data set [5] has as its system EKVX. The data set can be described thus: NCI in vitro cytotoxicity assay (SRB), EKVX. It is filed as cell-based. Conditions: Homo sapiens, 48 h exposure, sulforhodamine B assay, mean graph, read-out: Log10 GI50 (EKVX) (converted). On the procedure:
as §1

Data set [6] has as its system CCRF-CEM. As to the kind of experiment: NCI in vitro cytotoxicity assay (SRB), CCRF-CEM. The note with it: Homo sapiens, 48 h exposure, sulforhodamine B assay, mean graph, read-out: Log10 GI50 (CCRF-CEM) (converted). It is filed as cell-based. How it is done: as §1
For data set [7], the system named is HCC-2998. The data set can be described thus: NCI in vitro cytotoxicity assay (SRB), HCC-2998. The format is cell-based. Conditions: Homo sapiens, 48 h exposure, sulforhodamine B assay, mean graph, read-out: Log10 GI50 (HCC-2998) (converted). On the procedure:
as §1

With `Cc1cc(-c2nc3cc(F)ccc3s2)ccc1N` [Compound 2, 2-(4-Amino-3-methylphenyl)-5-fluorobenzothiazole], the GI50 in data set [1] is 25.7 µM; in data set [3] it was 28.8 µM; in data set [4], 20.9 µM; in data set [5] it was 1.41 µM; in data set [6] it was 1.23 µM. For the same compound, in data set [2], the “Biotransformation products of liberated parent amine in media” value was “No biotransformation products could be detected”.
Regarding `Cc1cc(-c2nc3cc(F)ccc3s2)ccc1NC(=O)[C@@H](N)CCCCN` [Compound 2b], the GI50 in data set [7] was 0.741 µM.
